According to patent EP1803452A1, “ESTER DERIVATIVE AND PHARMACEUTICAL USE THEREOF” (Japan Tobacco, Inc., priority 2004, dated 2006):

Tests used:
[1] = Metabolic stability test in plasma; format: in vitro ADME, human; details: LC/MS; for remaining at 10 min: unchanged form after 10 minutes at 37°C in human plasma, read-out: Remaining rate in human plasma (%/10min); for remaining at 1 h: unchanged form after 60 minutes at 37°C in human plasma, read-out: Remaining rate in human plasma (%/60min)
Method: A sample dissolved in DMSO was added to plasma of human or animal species (mouse and hamster). The solutions were incubated at 37°C for 0, 10 and 60 minutes, and acetonitrile containing formic acid (final concentration: 0.1%) was added thereto. The solutions were centrifuged, and the concentration of the sample (unchanged form) in the supernatant was determined by high performance liquid chromatography/mass spectrometry (LC/MS). Based on the data obtained, the remaining rate (%) was calculated according to the following equation. Remaining rate(%) = amount of sample 0,10, or 60 minutes after incubation/amount of sample at zero time after incubation × 100 [formula]
(§1) With respect to the compounds obtained in Working Examples according to the present invention (Compounds 1-1 to 1-115, 2-1, 3-1, 3-2, and 4-1 to 4-4), the results of the remaining rate in human liver S9 and plasma are shown in Tables 28 to 32.

[2] = Stability test in buffer (pH 7.4); format: physicochemical; details: phosphate buffer/acetonitrile 7:3, 100 mM potassium phosphate buffer (pH 7.4) and acetonitrile 7:3 (v/v), LC/MS; for remaining at 10 min: 10 minutes at 37°C, read-out: Buf. remaining rate (%/10min); for remaining at 1 h: 60 minutes at 37°C, read-out: Buf. remaining rate (%/60min)
Method: In the tables, Buf. remaining rate was determined by stability test in buffer (pH 7.4) as described below. A sample dissolved in DMSO was mixed with a mixed solution of 100 mM potassium phosphate buffer and acetonitrile in the ratio of 7:3 (v/v). The mixture was incubated at 37°C for 0, 10, and 60 minutes, and acetonitrile containing formic acid (final concentration: 0.1%) was added thereto. The solution was centrifuged, and the concentration of the sample (unchanged form) in the supernatant was determined by high performance liquid chromatography/mass spectrometry (LC/MS). Based on the data obtained, Buf. remaining rate (%) was calculated according to the following equation. Buf.remaining rate(%) = amount of sample 0,10, or 60 minutes after incubation/amount of sample at zero time after incubation × 100 [formula]

[3] = Metabolic stability test in liver S9; format: in vitro ADME; details: pH 7.4, human liver S9 2 mg protein/mL, LC/MS; for remaining at 10 min: unchanged form after 10 minutes at 37°C, read-out: Remaining rate in human liver S9 (%/10min); for remaining at 1 h: unchanged form after 60 minutes at 37°C, read-out: Remaining rate in human liver S9 (%/60min)
Method: Human liver S9 (final concentration: 2 mg protein/mL), was suspended in 100 mM potassium phosphate buffer (pH 7.4, containing β-nicotinamide adenine dinucleotide phosphate: 1.3 mM, D-glucose-6- phosphate: 3.3 mM, magnesium chloride: 3.3 mM, glucose-6-phosphate dehydrogenase:0.4 U/mL). The suspension was mixed with a solution of a sample dissolved in DMSO. The solution was incubated at 37°C for 0, 10 and 60 minutes, and an acetonitrile containing formic acid (final concentration: 0.1%) was added thereto. The solutions were centrifuged, and the concentration of the sample (unchanged form) in the supernatant was determined by high performance liquid chromatography/mass spectrometry (LC/MS). Based on the data obtained, remaining rate (%) was calculated according to the following equation. Remaining rate(%) = amount of sample 0,10, or 60 minutes after [formula] incubation/amount of sample at zero time after incubation × 100 [formula]
as §1

Structure (SMILES) | remaining at 10 min [1] | remaining at 1 h [1] | remaining at 10 min [2] | remaining at 1 h [2] | remaining at 10 min [3] | remaining at 1 h [3]
CN(C)C(=O)c1cc(CCC(=O)Oc2ccccc2)ccc1NC(=O)c1ccccc1-c1ccc(C(F)(F)F)cc1 [Compound 1-1, 3-{3-dimethylcarbamoyl-4-[(4'-trifluoromethylbiphenyl-2-carbonyl)amino]phenyl}propionic acid phenyl ester] | 80% | 40% | 101% | 104% | 0% | 0%
Cc1noc(-c2ccc(OC(=O)CCCc3ccc(NC(=O)c4ccccc4-c4ccc(C(F)(F)F)cc4)c(C(=O)N(C)C)c3)cc2)n1 [Compound 1-2, 4-{3-dimethylcarbamoyl-4-[(4'-trifluoromethylbiphenyl-2-carbonyl)amino]phenyl}butyric acid 4-(3-methyl-[1,2,4]oxadiazol-5-yl)phenyl ester] | 20% | 0% | 98% | 97% | 0% | 0%
CN(C)C(=O)c1cc(CC(=O)Oc2ccccc2)ccc1NC(=O)c1ccccc1-c1ccc(C(F)(F)F)cc1 [Compound 1-3, {3-dimethylcarbamoyl-4-[(4'-trifluoromethylbiphenyl-2-carbonyl)amino]phenyl}acetic acid phenyl ester] | 58% | 5% | 101% | 98% | 0% | 0%
CN(C)C(=O)c1cc(CC(=O)Oc2ccc(F)cc2)ccc1NC(=O)c1ccccc1-c1ccc(C(F)(F)F)cc1 [Compound 1-4, {3-dimethylcarbamoyl-4-[(4'-trifluoromethylbiphenyl-2-carbonyl)amino]phenyl}acetic acid 4-fluorophenyl ester] | 57% | 5% | 99% | 95% | 0% | 0%
COC(=O)c1ccc(OC(=O)CCCc2ccc(NC(=O)c3ccccc3-c3ccc(C(F)(F)F)cc3)c(C(=O)N(C)C)c2)cc1 [Compound 1-5, 4-(4-(3-dimethylcarbamoyl-4-[(4'-trifluoromethylbiphenyl-2-carbonyl)amino]phenyl}butyryloxy)benzoic acid methyl ester] | 11% | 0% | 100% | 101% | 0% | 0%
CCOC(=O)c1ccc(OC(=O)CCCc2ccc(NC(=O)c3ccccc3-c3ccc(C(F)(F)F)cc3)c(C(=O)N(C)C)c2)cc1 [Compound 1-6, 4-(4-{3-dimethylcarbamoyl-4-[(4'-trifluoromethylbiphenyl-2-carbonyl)amino]phenyl}butyryloxy)benzoic acid ethyl ester] | 53% | 0% | 102% | 102% | 0% | 0%
CC(C)OC(=O)c1ccc(OC(=O)CCCc2ccc(NC(=O)c3ccccc3-c3ccc(C(F)(F)F)cc3)c(C(=O)N(C)C)c2)cc1 [Compound 1-7, 4-(4-{3-dimethylcarbamoyl-4-[(4'-trifluoromethylbiphenyl-2-carbonyl)amino]phenyl}butyryloxy)benzoic acid isopropyl ester] | 60% | 0% | 98% | 98% | 0% | 0%

Next, values leading:

remaining at 10 min [1] | remaining at 1 h [1] | remaining at 10 min [2] | remaining at 1 h [2] | remaining at 10 min [3] | remaining at 1 h [3] | Structure (SMILES)
71% | 12% | 99% | 98% | 0% | 0% | CCCOC(=O)c1ccc(OC(=O)CCCc2ccc(NC(=O)c3ccccc3-c3ccc(C(F)(F)F)cc3)c(C(=O)N(C)C)c2)cc1 [Compound 1-8, 4-(4-{3-dimethylcarbamoyl-4-[(4'-trifluoromethylbiphenyl-2-carbonyl)amino]phenyl}butyryloxy) benzoic acid propyl ester]
0% | 0% | 101% | 98% | 0% | 0% | COC(=O)c1ccc(OC(=O)CCCc2ccc(NC(=O)c3ccccc3-c3ccc(C(F)(F)F)cc3)c(C(=O)N(C)C)c2)c(F)c1 [Compound 1-10, 4-(4-{3-dimethylcarbamoyl-4-[(4'-trifluoromethylbiphenyl-2-carbonyl)amino]phenyl}butyryloxy)-3-fluoro benzoic acid methyl ester]
0% | 0% | 99% | 99% | 0% | 0% | COC(=O)c1ccc(OC(=O)CCCc2ccc(NC(=O)c3ccccc3-c3ccc(C(F)(F)F)cc3)c(C(=O)N(C)C)c2)c(Cl)c1 [Compound 1-11, 3-chloro-4-(4-{3-dimethylcarbamoyl-4-[(4'-trifluoromethylbiphenyl-2-carbonyl)amino]phenyl}butyryloxy)benzoic acid methyl ester]
10% | 0% | 100% | 103% | 0% | 0% | COC(=O)c1ccc(OC(=O)CCCc2ccc(NC(=O)c3ccccc3-c3ccc(C(F)(F)F)cc3)c(C(=O)N(C)C)c2)c(OC)c1 [Compound 1-12, 4-(4-{3-dimethylcarbamoyl-4-[(4'-trifluoromethylbiphenyl-2-carbonyl)amino]phenyl}butyryloxy)-3-methoxybenzoic acid methyl ester]
24% | 0% | 95% | 97% | 0% | 0% | COC(=O)c1ccc(OC(=O)CCCc2ccc(NC(=O)c3ccc(C)nc3-c3ccc(C(F)(F)F)cc3)c(C(=O)N(C)C)c2)cc1 [Compound 1-13, 4-[4-(3-dimethylcarbamoyl-4-{[6-methyl-2-(4-trufluoromethylphenyl)pyridine-3-carbonyl]amino}phenyl)butyryloxy)benzoic acid methyl ester]
43% | 0% | 101% | 104% | 2% | 0% | COC(=O)c1ccc(OC(=O)CCCc2ccc(NC(=O)c3ccccc3-c3ccc(C(F)(F)F)cc3)c(C(=O)N(C)C)c2)cc1C [Compound 1-14, 4-(4-{3-dimethylcarbamoyl-4-[(4'-trifluoromethylbiphenyl-2-carbonyl)amino]phenyl}butyryloxy)-2-methyl benzoic acid methyl ester]
42% | 0% | 98% | 100% | 4% | 0% | COC(=O)c1ccc(OC(=O)CCCc2ccc(NC(=O)c3ccccc3-c3ccc(C(F)(F)F)cc3)c(C(=O)N3CCCC3)c2)cc1 [Compound 1-15, 4-(4-{3-(pyrrolidine-1-carbonyl)-4-[(4'-trifluoromethylbiphenyl-2-carbonyl)amino]phenyl}butyryloxy)benzoic acid methyl ester]
3% | 0% | 98% | 103% | 2% | 0% | CCOC(=O)c1ccc(OC(=O)CCCc2ccc(NC(=O)c3ccccc3-c3ccc(C(F)(F)F)cc3)c(C(=O)N3CCCC3)c2)c(F)c1 [Compound 1-16, 3-fluoro-4-(4-{3-(pyrrolidine-1-carbonyl)-4-[(4'-trifluoromethylbiphenyl-2-carbonyl)amino]phenyl)butyryloxy)benzoic acid ethyl ester]
